From publication PMC9611887, “Chitosan as a Functional Carrier for the Local Delivery Anti-Inflammatory Systems Containing Scutellariae baicalensis radix Extract” (Pharmaceutics, 2022) come the findings set out here.

Each structure is given as a SMILES string.

This assay concerns the target T1, hyaluronidase.
T1 construct: gene SPAM1
The assay can be described thus: turbidimetric assay, CTAB precipitation of undigested hyaluronic acid, absorbance […] nm. The format is biochemical. The settings on record: hyaluronic acid 0.3 mg/mL, acetate buffer pH 4.5, bovine albumin and NaCl present, 37 °C, 10 min preincubation, 45 min reaction.

With `O=C(O)[C@H]1O[C@@H](Oc2cc3oc(-c4ccccc4)cc(=O)c3c(O)c2O)[C@H](O)[C@@H](O)[C@@H]1O` [Baicalin], the “Ability to Inhibit the Enzyme Hyaluronidase IC50” value was 1210 ± 60 µg/mL.
